≈ marks a conversion by molar mass, not a printed value.
Columns and labels:
Assay type in all cases: cell-based
[1] = system: Staphylococcus aureus (S. aureus—ATCC #6538); assay: Antibacterial efficacy on cotton fabrics; details: cotton fabric, 625 ppm active in liquor with 3750 ppm C12-C14 EO7, 1 h contact; for Number of bacteria recovered from treated fabrics: nil AB reference 9.1 × 10^5 CFU/ml
Protocol: The bactericidal efficacy on fabric surfaces of treatments with antimicrobial aqueous liquors comprising different antimicrobial agents was determined against the bacterium Staphylococcus aureus (S. aureus—ATCC #6538). The bacteria inoculum was prepared by transferring several colonies from a Tryptone Soy Agar (TSA) plate to a saline solution (0.85% NaCl) comprising 5% horse serum as additional soil load, the bacteria concentration in this saline solution was determined by measuring the % Transmittance at 425 nm and adjusted by either adding more bacteria or more saline solution until the % Transmittance at 425 nm is between 23-25% which corresponds to a bacteria concentration of 10^8 CFU/ml.
Fabric carriers, 1 cm×1 cm disks of cotton sterilized by autoclaving, were inoculated with 30 μL of the 10^8 CFU/ml bacteria inoculum and incubated for 20 mins at 32° C. After this incubation period, 3 fabric carriers were placed within bundles of 10 clean sterile cotton disks and secured by placing a sterile 30 mm paperclip to the edge of the bundle. The fabric bundles were placed in 30 ml of antimicrobial aqueous liquors to be used in the method of the present invention comprising 3750 ppm of C12-C14 EO7 alkyl ethoxylate non ionic surfactant and 625 ppm of either bispyridinium alkane (octenidine dihydrochloride), N-(3-aminopropyl)-N-dodecylpropane-1,3-diamine (Lonzabac 12.30) or benzalkonium chloride (Sigma-Aldrich CAS number 63449-41-2) as antimicrobial actives. The contact time between the bacteria in the fabric carriers and the antimicrobial aqueous liquor was 1 h. After this contact time, each fabric bundle was rinsed for 5 minutes with water and the 3 fabric carries transferred to 9 ml of neutralizer solution (Modified Letheen Broth+1.5% Polysorbate 80, supplied by BioMérieux) to stop the antimicrobial action of the antimicrobial active. The neutralizer tube containing the fabric carriers was vortexed in a Genie 2 vortexer set at speed 7 for 30 seconds. Ten-fold dilutions of the neutralizer+fabric carrier solution were prepared by transferring 1 ml of the neutralizer solution to 9 ml of neutralizer solution, this solution was further diluted in neutralizer solution following the same protocol so that serial ten-fold dilutions were obtained. 100 μL of each of the serial dilutions were plated on a TSA plate, plates were incubated at 32° C. for 18 hours, after this incubation time, the number of colonies in each plate was counted. The target dilution used to determine the bactericidal efficacy of aqueous liquor of the method of the present invention was the one delivering 30-300 CFU in the plate, the data reported for each antimicrobial active is the average of the bacteria number in three plates multiplied by the target dilution. The log reduction for each antibacterial treatment vs nil antibacterial active reference is the log 10 of the number obtained by dividing the number of colonies recovered from the fabrics treated with the nil antibacterial reference aqueous liquor by the number of colonies recovered from the fabrics treated with aqueous liquors comprising the different antimicrobial actives.
Cotton fabrics inoculated with bacteria were treated for 1 hour with aqueous liquors comprising 3750 ppm of C12-C14 EO7 alkyl ethoxylate non ionic surfactant and either no antibacterial active (ref) or 625 ppm of octenidine hydrochloride, 625 ppm of Lonzabac 12.30 or 625 ppm of benzalkonium chloride as antibacterial actives. After the treatment, the bacteria remaining on the treated fabrics were extracted and quantified. It can be seen that the treatment done with the aqueous liquor comprising octenidine hydrochloride provides better antibacterial efficacy, i.e. less bacteria remaining on fabrics, and higher log reduction, than the treatments done with aqueous liquors comprising either Lonzabac or benzalkonium chloride.

[2] = system: Staphylococcus aureus (S. aureus—ATCC #6538); assay: Minimum Biocidal Concentration (MBC) in suspension, S. aureus; details: 6 minutes contact time, 5% horse serum soil load
Protocol: (§1) The antimicrobial efficacy of the antimicrobial agent in the aqueous liquor is determined by measuring its Minimum Biocidal Concentration (MBC). The MBC is defined as the lowest absolute concentration of the particular antimicrobial active which provides complete kill (zero bacterial growth). The MBC of the bispyridinium alkane antimicrobial active is determined against the bacterium, Staphylococcus aureus (S. aureus—ATCC #6538), a gram positive bacterium, and against Escherichia coli (E. coli ATCC #8739) these microorganisms are representative of natural contaminants in many consumer and industrial applications. The bacteria inoculum is prepared by transferring several colonies from a Tryptone Soy Agar (TSA) plate to a saline solution (0.85% NaCl) comprising 5% of horse serum as additional soil load, the bacteria concentration in this saline solution is determined by measuring the % Transmittance at 425 nm and adjusted by either adding more bacteria or more saline solution until the % Transmittance at 425 nm is between 23-25% for S. aureus and 31-33% for E. coli. These % Transmittance values correspond to a bacteria concentration of 10^8 CFU/ml.
(§2) The antimicrobial agent was added to the aqueous liquor to be used in the method of the present invention at a level of 200 ppm, or 100 ppm or 50 ppm. 200 μL of the antimicrobial aqueous liquor was dosed into one well of row A of a 96 well microtiter plate. Each subsequent well (rows B to G) were dosed with 100 μL of the same aqueous liquor, without the addition of the antimicrobial agent. 100 μL of the antimicrobial aqueous liquor was transferred from row A to row B and mixed. 100 μL of the antimicrobial aqueous liquor was then transferred from row B to row C and mixed, and the process repeated to row G. As such, the concentration of the antimicrobial agent underwent two-fold dilution in adjacent wells, while the concentration of any adjunct present in the aqueous liquor remained constant across all the wells in the same column.
10 μL of the 10^8 CFU/ml bacteria suspension in saline was added to wells A to F of the microtiter plate with row G kept as a nil bacteria control. The final volume in each well was 110 μL, except for row G which comprised 100 μL of the hard surface cleaning composition and no bacteria suspension. Bacterial inoculation to each column was staggered by 30 seconds to allow for equal incubation times in all wells so that the contact time between the bacteria and the antimicrobial active for all samples was 6 mins. After this contact time, 10 μL of each test solution was transferred to 90 μL of neutraliser solution (Modified Letheen Broth+1.5% Polysorbate 80, supplied by BioMérieux) to stop the antimicrobial action of the antimicrobial active matching the stagger of the inoculation. 2 μL of this solution was plated onto a TSA plate matching the stagger of the inoculation so that all samples are exposed to the neutralizer for the same period of time. The plate is incubated at 32.5° C. for 24-48 h for S. aureus, and 24 h for E. coli. MBC concentration is taken as the lowest concentration of the antimicrobial active at which no visible colony growth is observed on the TSA plate.
(§3) The antibacterial efficacy of the bispyridinium alkane octenidine hydrochloride was compared to that of N-(3-aminopropyl)-N-dodecylpropane-1,3-diamine (Lonzabac 12.30-Lonza) and n-alkyl dimethyl benzyl ammonium chloride/n-alkyl dimethyl ethylbenzyl ammonium chloride (BTC2125-Stepan) in different aqueous liquors. The minimal biocidal concentration (MBC) in suspension of each antibacterial active against a gram positive bacterium (Staphylococcus aureus) and a gram negative bacterium (Escherichia coli) was determined after 6 minutes contact time.

[3] = system: Escherichia coli (E. coli ATCC #8739); assay: Minimum Biocidal Concentration (MBC) in suspension, E. coli; details: 6 minutes contact time, 5% horse serum soil load; for MBC: Escherichia coli, ATCC8739, 0.1 h
Protocol: as §1, §2
10 μL of the 10^8 CFU/ml bacteria suspension in saline was added to wells A to F of the microtiter plate with row G kept as a nil bacteria control. […]
as §3

[4] = aqueous liquor 2: Octyliminodipropionate (Ampholak YJH 40) 0.1%
[5] = aqueous liquor 3: C12-C14 EO7 alcohol ethoxylate 0.1%
[6] = aqueous liquor 5: Sodium lauroamphohydroxypropylsulfonate (Miranol JS) 0.0062%
[7] = aqueous liquor 7: Octyliminodipropionate (Ampholak YJH 40) 0.0062%
[8] = aqueous liquor 8: C12-C14 EO7 alcohol ethoxylate 0.0062%

| Compound | Log reduction vs treatment with nil AB active reference [1] | Number of bacteria recovered from treated fabrics [1] | MBC ([2]; Staphylococcus aureus, ATCC6538, 0.1 h, aqueous liquor 1: deionized water) [µg/mL] | MBC S. aureus [2, 4] [ppm] | MBC S. aureus [2, 5] [ppm] | MBC S. aureus ([2]; aqueous liquor 4: Disodium capryloamphodiacetate (Mackam 2CY75) 0.025%) [ppm] | MBC S. aureus [2, 6] [ppm] | MBC [3, 7] [µg/mL] | MBC [3, 8] [µg/mL] | MBC S. aureus ([2]; aqueous liquor 1: deionized water) [ppm] | MBC E. coli [3, 7] [ppm] | MBC E. coli [3, 8] [ppm] |
| --- | --- | --- | --- | --- | --- | --- | --- | --- | --- | --- | --- | --- |
| benzalkonium chloride | Log 1.2 | 5.8 × 10^4 CFU/ml | – | – | – | – | – | – | – | – | – | – |
| CCCCCCCCCCCCN(CCCN)CCCN [Lonzabac 12.30, N-(3-aminopropyl)-N-dodecylpropane-1,3-diamine] | Log 0.7 | 1.9 × 10^5 CFU/ml | 25 (≈ 83.5 µM) | 25 | 25 | 25 | 25 | 50 (≈ 167 µM) | 25 (≈ 83.5 µM) | – | – | – |
| CCCCCCCCN=c1ccn(CCCCCCCCCCn2ccc(=NCCCCCCCC)cc2)cc1.Cl.Cl [Octenidine, octenidine dihydrochloride] | Log 2.5 | 2.8 × 10^3 CFU/ml | – | 3.125 | 6.25 | – | 3.125 | – | – | 3.125 | 3.125 | 6.25 |

Source: patent publication US20210032806A1, “ANTIMICROBIAL FABRIC TREATMENT” (The Procter & Gamble Company, priority 2019, published 2021)
